In US20200376011A1, “COMPOSITION FOR TREATING CANCER INCLUDING ALGINATE OLIGOSACCHARIDE AS AN ACTIVE INGREDIENT” (BIO3S, INC, priority 2019, published 2020):

System: infiltration of NK cells into ECM (collagen) toward cancer cells (A549)
Assay: NK cell infiltration in tumor microenvironment (TME) simulating organ-on-a-chip model
Assay type: cell-based
Conditions: co-treatment with NK cells and M5 versus NK cells alone; 48 hours; high-concentration collagen cell barrier model
Excerpt: The efficacy as a cancer adjuvant was examined by administering tumor microenvironment (TME) simulating models (organ-on-a-chips) with NK cells and the indicator component M5 for the active ingredient of the present disclosure.
NK cells, known to have anti-cancer efficacy as immune cells, were examined for a change in infiltration ability into tumor tissues according to whether or not NK cells were co-administered with M5. The qualification criterion was the infiltration ability of immune cells into ECM, which was determined by the infiltration distance of NK cells and whether or not the number of infiltrating cells was increased. Collagen was selected as a representative type of ECM. The cells were seeded into the chips under a […] collagen condition, and after 6 hours and 48 hours, the infiltration of NK cells toward the medium and cancer cell (A549) channels was observed.
A comparison was made for the infiltration ability of NK cells between the treatment with NK cells alone and the co-treatment with NK cells and M5, for 48 hours in high-concentration collagen cell barrier models.

Substance: penta-mannuronic acid sodium salt [M5]
- infiltration ability of NK cells into cancer cells: enhanced
